Reference: patent US11339150B2, “Benzimidazole compounds as HDAC6 inhibitors” (OnKure, Inc., priority 2019, dated 2022)

Target: T1, HDAC6 (Homo sapiens, UniProt Q9UBN7)
T1 sequence (Q9UBN7 1-1215): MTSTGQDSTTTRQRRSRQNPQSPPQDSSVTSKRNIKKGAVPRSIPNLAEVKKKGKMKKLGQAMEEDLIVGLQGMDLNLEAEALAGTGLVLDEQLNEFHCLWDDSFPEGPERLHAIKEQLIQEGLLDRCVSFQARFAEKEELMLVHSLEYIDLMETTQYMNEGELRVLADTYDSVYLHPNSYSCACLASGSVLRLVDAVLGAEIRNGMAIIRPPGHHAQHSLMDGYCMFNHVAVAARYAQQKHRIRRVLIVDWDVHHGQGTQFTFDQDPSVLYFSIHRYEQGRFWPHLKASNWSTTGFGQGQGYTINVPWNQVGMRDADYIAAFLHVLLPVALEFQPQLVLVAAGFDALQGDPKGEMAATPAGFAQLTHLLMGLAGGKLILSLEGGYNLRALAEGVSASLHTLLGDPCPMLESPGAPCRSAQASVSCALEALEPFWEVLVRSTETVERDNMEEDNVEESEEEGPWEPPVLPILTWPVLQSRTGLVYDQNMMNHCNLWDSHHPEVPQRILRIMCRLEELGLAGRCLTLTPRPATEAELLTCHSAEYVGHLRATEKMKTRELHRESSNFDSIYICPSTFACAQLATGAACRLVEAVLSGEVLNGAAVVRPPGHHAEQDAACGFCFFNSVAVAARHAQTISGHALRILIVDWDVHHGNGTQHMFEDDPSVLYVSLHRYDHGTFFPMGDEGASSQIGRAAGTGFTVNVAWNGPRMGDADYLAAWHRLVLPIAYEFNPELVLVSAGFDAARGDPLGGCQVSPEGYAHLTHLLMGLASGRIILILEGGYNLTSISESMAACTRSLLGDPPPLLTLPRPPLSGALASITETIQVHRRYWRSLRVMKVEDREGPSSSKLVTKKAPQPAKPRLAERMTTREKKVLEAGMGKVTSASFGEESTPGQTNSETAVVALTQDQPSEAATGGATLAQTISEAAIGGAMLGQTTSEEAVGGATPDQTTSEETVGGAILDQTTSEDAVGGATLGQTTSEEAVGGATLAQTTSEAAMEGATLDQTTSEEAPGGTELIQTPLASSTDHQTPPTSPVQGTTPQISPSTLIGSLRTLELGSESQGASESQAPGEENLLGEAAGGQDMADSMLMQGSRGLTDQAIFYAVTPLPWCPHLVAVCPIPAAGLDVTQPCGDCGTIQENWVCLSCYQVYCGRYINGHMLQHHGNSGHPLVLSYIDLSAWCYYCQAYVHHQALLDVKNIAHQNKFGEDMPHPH
Assay: HDAC assay (fluorogenic substrate), HDAC6
Format: biochemical
Description: Base Reaction buffer: 50 mM Tris-HCl, pH8.0, 137 mM NaCl, 2.7 mM KCl, and 1 mM MgCl2. Add fresh: 1 mg/ml BSA, 1% DMSO
Fluorogenic HDAC General Substrate: 50 μM, Arg-His-Lys-Lys(Ac)
• 1. Deliver 2× enzyme in wells of reaction plate except No Enzyme control wells. Add buffer in No En wells. • 2. Deliver compounds in 100% DMSO into the enzyme mixture by Acoustic technology (Echo550; nanoliter range). Spin down and pre-incubation. • 3. Deliver 2× Substrate Mixture (Fluorogenic HDAC Substrate and co-factor if applicable) in all reaction wells to initiate the reaction. Spin and shake. • 4. Incubate for 30 min for Class 2A, 1 hr for HDAC1, 2, 3, and 6, and 2 hr for the rest of HDACs and SIRTs at 30° C. with seal. Development Step: • 5. Add Developer with Trichostatin A (or Nicotinamide for SIRTs) to stop the reaction and to generate fluorescent color. • 6. Kinetic measurement for 1.5 hr with Envision with 15 min interval. (Ex/Em=360/460 nm) • 7. Take endpoint reading for analysis after the development reaches plateau.

Row | inhibition at 10 µM [%] | Compound
1 | > 90 | O=S(=O)(NCC1CC1)c1cc(Nc2ncc(-c3nnc(C(F)F)o3)cn2)cc2c1ncn2CCO [Example 26, N-(cyclopropylmethyl)-6-((5-(5-(difluoromethyl)-1,3,4-oxadiazol-2-yl)pyrimidin-2-yl)amino)-1-(2-hydroxyethyl)-1H-benzo[d]imidazole-4-sulfonamide]
2 | > 90 | CNC(=O)n1cnc2c(-c3ccccc3)cc(Nc3ncc(-c4nnc(C(F)F)o4)cn3)cc21 [Example 28, 6-((5-(5-(difluoromethyl)-1,3,4-oxadiazol-2-yl)pyrimidin-2-yl)amino)-N-methyl-4-phenyl-1H-benzo[d]imidazole-1-carboxamide]
3 | > 90 | CC(CO)n1cnc2c(-c3ccccc3)cc(Nc3ncc(-c4nnc(C(F)F)o4)cn3)cc21 (stereo not drawn) [Example 29, 2-(6-((5-(5-(difluoromethyl)-1,3,4-oxadiazol-2-yl)pyrimidin-2-yl)amino)-4-phenyl-1H-benzo[d]imidazol-1-yl)propan-1-ol]
4 | > 90 | Cc1nc2c(-c3ccccc3)cc(Nc3ncc(-c4nnc(C(F)F)o4)cn3)cc2n1CCO [Example 30, 2-(6-((5-(5-(difluoromethyl)-1,3,4-oxadiazol-2-yl)pyrimidin-2-yl)amino)-2-methyl-4-phenyl-1H-benzo[d]imidazol-1-yl)ethan-1-ol]
5 | > 90 | OCCn1cnc2c(-c3ccc(F)cc3F)cc(Nc3ncc(-c4nnc(C(F)F)o4)cn3)cc21 [Example 32, 2-(6-((5-(5-(difluoromethyl)-1,3,4-oxadiazol-2-yl)pyrimidin-2-yl)amino)-4-(2,4-difluorophenyl)-1H-benzo[d]imidazol-1-yl)ethan-1-ol]
6 | > 90 | OCCn1cnc2c(-c3ccc(F)cc3C(F)(F)F)cc(Nc3ncc(-c4nnc(C(F)F)o4)cn3)cc21 [Example 33, 2-(6-((5-(5-(difluoromethyl)-1,3,4-oxadiazol-2-yl)pyrimidin-2-yl)amino)-4-(4-fluoro-2-(trifluoromethyl)phenyl)-1H-benzo[d]imidazol-1-yl)ethan-1-ol]
7 | > 90 | CC(C)(C)c1cc(Nc2ncc(-c3nnc(C(F)F)o3)cn2)cc2c1ncn2CCO [Example 34, 2-(4-(tert-butyl)-6-((5-(5-(difluoromethyl)-1,3,4-oxadiazol-2-yl)pyrimidin-2-yl)amino)-1H-benzo[d]imidazol-1-yl)ethan-1-ol]
8 | > 90 | FC(F)c1nnc(-c2cnc(Nc3cc(-c4ccncc4)c4nc[nH]c4c3)nc2)o1 [Example 35, N-(5-(5-(difluoromethyl)-1,3,4-oxadiazol-2-yl)pyrimidin-2-yl)-4-(pyridin-4-yl)-1H-benzo[d]imidazol-6-amine]
9 | > 90 | FC(F)c1nnc(-c2cnc(Nc3cc(-c4ccn[nH]4)c4nc[nH]c4c3)nc2)o1 [Example 36, N-(5-(5-(difluoromethyl)-1,3,4-oxadiazol-2-yl)pyrimidin-2-yl)-4-(1H-pyrazol-5-yl)-1H-benzo[d]imidazol-6-amine]
10 | > 90 | OCCn1cnc2c(-c3ccn[nH]3)cc(Nc3ncc(-c4nnc(C(F)F)o4)cn3)cc21 [Example 37, 2-(6-((5-(5-(difluoromethyl)-1,3,4-oxadiazol-2-yl)pyrimidin-2-yl)amino)-4-(1H-pyrazol-5-yl)-1H-benzo[d]imidazol-1-yl)ethan-1-ol]
11 | > 90 | Fc1c(Nc2ncc(-c3nnc(C(F)F)o3)cn2)cc2[nH]cnc2c1-c1ccccc1 [Example 38, N-(5-(5-(difluoromethyl)-1,3,4-oxadiazol-2-yl)pyrimidin-2-yl)-5-fluoro-4-phenyl-1H-benzo[d]imidazol-6-amine]
12 | > 90 | Fc1c(Nc2ncc(-c3nnc(C(F)F)o3)cn2)cc(-c2ccccc2)c2nc[nH]c12 [Example 39, N-(5-(5-(difluoromethyl)-1,3,4-oxadiazol-2-yl)pyrimidin-2-yl)-7-fluoro-4-phenyl-1H-benzo[d]imidazol-6-amine]
